Measured values as given in the OPERA property sets (Mansouri et al. 2018).
≈ marks a conversion by molar mass, not a printed value.

Conditions: 25 °C

solubility [µM]	SMILES
11600 (≈ 1580 µg/mL)	Cc1ccc(C)c(O)c1C
0.347 (≈ 0.066 µg/mL)	CCCCCCCCc1ccccc1
14200 (≈ 2240 µg/mL)	CC(Br)CCl (configuration not stated)
2610 (≈ 371 µg/mL)	CCCCCCCC(C)=O
353 (≈ 51.5 µg/mL)	Fc1cccc2ccccc12
2.54 (≈ 0.447 µg/mL)	CCCCCCCc1ccccc1
491 (≈ 76.8 µg/mL)	CCCCCCCCC(C)=O
1.45 (≈ 0.235 µg/mL)	Cc1c(C)c(C)c(C)c(C)c1C
133 (≈ 22.9 µg/mL)	CCCCCCCCC(=O)OC
212000 (≈ 35400 µg/mL)	CC(=O)OCCBr

SMILES	solubility [µM]
Clc1cccc2ccccc12	107 (≈ 17.4 µg/mL)
Fc1ccc(CCl)cc1	2860 (≈ 413 µg/mL)
